Results: patent US12156877B1, “Methods of treating conditions related to a thiamine deficiency, a thiamine-dependent enzyme, or an associated cofactor” (The Regents of the University of California, priority 2019, dated 2024)

Columns and labels:
[1] = test system: WKS mouse models; experiment: Body weight and disease onset of WKS mouse model (0 ppm thiamine and pyrithiamine injections) in normoxia versus hypoxia; format: in vivo, mice
Protocol: FIG. 3 depicts the body weight of Wernicke-Korsakoff (WKS) Animal Model (0 ppm thiamine and pyrithiamine injections) in normoxia versus hypoxia using the methods described herein.
Hypoxia and moderate hyperoxia exposure were tested in these mouse models of WK syndrome. Six groups of mice for each different oxygen exposure will be used—(no disease, moderate disease, extreme disease)×(with or without thiamine treatment starting day 10 of the disease model). […] This sample size should be sufficient to detect a 30% increase in survival with 80% power. Disease progression in these different conditions will be carefully monitored. Daily body weights from the beginning of treatment will be taken. Additionally, behavior was monitored on a weekly basis using rotarod tests, open field experiments and the Y-maze memory test. For 3 mice per group, T2-weighted MRI scans was performed once per week. This will allow the monitoring of the disease progression and reversal. For a separate set of 3 mice per group, mice were sacked, and neuropathology performed, staining for neuronal cell loss (using NeuN) or neuroinflammatory signatures (using antibodies against GFAP) similar to that performed in Jain et. al.
FIG. 3 depicts the results of WKS mouse models being treated at 21% O2 (normoxia) and 11% O2 (hypoxia) for a span of 20 days. […] Hypoxia began on Day 3 of the experiment.

[2] = test system: mice on a thiamine-deficient diet
[3] = test system: mice with thiamine-deficiency; experiment: Symptoms caused by thiamine deficiency (blood lactate, grip strength, body temperature) under different oxygen tensions; format: in vivo
Excerpt: FIGS. 6A-6E depict the results of lowering FiO2 on the symptoms caused by thiamine deficiency. Blood lactate measured in mice housed under different oxygen tensions 21 and 35 days after the diets started. […] Muscle strength assessed by grip strength of mice administered with 17 ppm or 0 ppm thiamine for 21 days. Muscle strength is compromised in mice with thiamine-deficiency under 55% and 21% oxygen (FIG. 6C). […] Student's t-test * p<0.05, ** p<0.01, […]. While the present invention has been described with reference to the specific embodiments thereof, it should be understood by those skilled in the art that various changes may be made and equivalents may be substituted without departing from the true spirit and scope of the invention. In addition, many modifications may be made to adapt a particular situation, material, composition of matter, process, process step or steps, to the objective, spirit and scope of the present invention. All such modifications are intended to be within the scope of the claims appended hereto.

[4] = test system: mouse models for Wernicke-Korsakoff syndrome; settings: 500 mg thiamine 3×/day; both models (thiamine-deficient diet, with or without pyrithiamine); cited from earlier work

SMILES | disease onset (physiological signs of WKS) ([1]; 11% O2 (hypoxia) begun on Day 3, span of 20 days, versus 21% O2 (normoxia)) | significant drop of body-weight at Day 14 ([1]; 11% O2 (hypoxia), body-weight at 21% O2 dropped significantly at Day 14) | onset of weight loss ([2]; 8% O2 (extreme hypoxia)) | survival at 60 days after start of thiamine-deficient diet ([2]; 8% O2 (extreme hypoxia)) | survival time ([2]; 8% O2 (extreme hypoxia)) | extension of survival time ([2]; 11% O2, versus 21% O2 (median survival time 37 days)) | rate of body weight loss ([2]; 11% O2, versus 21% O2 (weight loss began at 21 days)) | disease progression ([2]; 55% O2) | body temperature ([3]; 11% O2, thiamine-deficient diet for 43 days, mice under normoxic air exhibit hypothermia) | muscle strength assessed by grip strength ([3]; 55% oxygen, 0 ppm thiamine for 21 days) | blood lactate ([3]; 55% oxygen, day 21 and day 35 after the diets started, severe disease state) | disease progression in thiamine-deficiency models [4]
O=O [O2, oxygen] | prevented disease onset | did not | further delayed the onset of weight loss | some mice were still alive at 60 days | extended the survival time | approximately 13 days | lost body weight at a slower rate | exacerbated the disease progression | normal body temperatures | compromised | lactic acidosis | –
Cc1ncc(C[n+]2csc(CCO)c2C)c(N)n1 [thiamine] | – | – | – | – | – | – | – | – | – | – | – | can be reversed
